Results taken from US10435376B2, “Derivatives of 1H-imidazole-4,5-dicarboxamide and use thereof in preparation of anticoccidial drugs” (GUANGZHOU INSIGHTER BIOTECHNOLOGY CO., LTD., priority 2015, dated 2019).
Like-named read-outs stand apart in the source and are kept apart here.

Assays:
Type in all cases: in vivo
[1] = system: Eimeria tenella; assay: Inhibitory effects of the derivatives on Eimeria tenella of chicken (60 ppm in feed); settings: for anticoccidial activity in view of survival rate, bloody stool score and relative weight gain: 60 ppm, E. tenella; for responders at 60 ppm, 60 µg/mL / response vs control in vivo at 60 ppm, 60 µg/mL: Eimeria tenella, 168 h; for responders at 60 ppm, 60 µg/mL: read-out: Survival rate (%); for response vs control in vivo at 60 ppm, 60 µg/mL: relative to group 1 (not infected, not treated), read-out: Relative weight gain (%); for Score (bloody stool score): 5 days after inoculation
Text: (§1) One-day-old yellow-feather fast-growing broilers were raised in a coccidia-free environment, and divided into groups for trial at the age of 18 days when no coccidian oocysts were detected by microscopy in their faeceas. Weak or overweight broilers were removed, and healthy broilers were divided into 30 groups with 50 broilers in each group and weight difference between each two broilers was below 20 g. Groups 1 and 2 were respectively a control group that the broilers were neither infected nor treated, and a control group that the broilers were infected but not treated. Groups 3 to 30 were respectively administrated with different derivatives. The broilers were given ad libitum access to feed and water when the feed was added with different medicines according to Table 1 at the day the broilers were divided. 24 Hours after the trial began, 250,000 sporulated Eimeria tenella oocysts were inoculated via an oral gavage into the crop of every broiler in each group except group 1. Bloody stool score was measured 5 days after the inoculation and the trial was ended 7 days after the inoculation. Relative weight gain (%), survival rate (%) and the bloody stool score were evaluated.
(§2) Bloody stool score: 0, no bloody stool was observed; 1, bloody stool below 25%; 2, 25 to 50% of bloody stool; 3, 50 to 75% of bloody stool; and 4, bloody stool over 75%.
(§3) Relative weight gain (%): The broilers were weighed at the beginning and the end of the trial to calculate the average weight gain and relative weigh gain. Relative weight gain=(average weight gain of each group/average weight gain of group 1)×100%.
(§4) Deaths of the broilers: Necropsy was performed and the amount of dead broilers in each group was recorded to calculate the survival rate. Survival rate=(total amount of the broilers in each group−amount of deaths caused by coccidial infection)/total amount of the broilers in each group×100%.

[2] = system: Eimeria acervulina; assay: Inhibitory effects of the derivatives on Eimeria acervulina of chicken; settings: for anticoccidial activity in view of survival rate, relative weight gain and feed conversion ratio: 60 ppm, E. acervulina; for responders at 60 ppm, 60 µg/mL / response vs control in vivo at 60 ppm, 60 µg/mL: Eimeria acervulina, 168 h; for responders at 60 ppm, 60 µg/mL: read-out: Survival rate (%); for response vs control in vivo at 60 ppm, 60 µg/mL: feed or water, read-out: Relative weight gain (%)
Procedure: as §3, §4
One-day-old yellow-feather fast-growing broilers were raised in a coccidia-free environment, and divided into groups for trial at the age of 18 days when no coccidian oocysts were detected by microscopy in their faeceas. Weak or overweight broilers were removed, and healthy broilers were divided into 10 groups with 50 broilers in each group and weight difference between each two broilers was below 20 g. Groups 1 and 2 were respectively a control group that the broilers were neither infected nor treated, and a control group that the broilers were infected but not treated. Groups 3 to 10 were respectively administrated with different derivatives. The broilers were given ad libitum access to feed and water when the feed was added with different medicines according to Table 3 at the day the broilers were divided. 24 Hours after the trial began, 400,000 sporulated Eimeria acervulina oocysts were inoculated via an oral gavage into the crop of every broiler in each group except group 1. The trial was ended 7 days after the inoculation. Relative weight gain (%), survival rate (%) and feed conversion ratio were evaluated.

[3] = system: Eimeria necatrix; assay: Inhibitory effects of the derivatives on Eimeria necatrix of chicken; settings: for anticoccidial activity in view of survival rate, bloody stool score and relative weight gain: 60 ppm, E. necatrix; for responders at 60 ppm, 60 µg/mL / response vs control in vivo at 60 ppm, 60 µg/mL: Eimeria necatrix, 168 h; for responders at 60 ppm, 60 µg/mL: read-out: Survival rate (%); for response vs control in vivo at 60 ppm, 60 µg/mL: feed or water, read-out: Relative weight gain (%); for response vs control in vivo at 60 ppm, 60 µg/mL / Score (bloody stool score): broilers, 60 ppm in feed, 100,000 E. necatrix oocysts; for Score (bloody stool score): 5 days after inoculation
Procedure: as §2, §3, §4
as §1, with “into 10” for “into 30”, “to 10” for “to 30”, “Table 4” for “Table 1”, “began, 100,000” for “began, 250,000”, “Eimeria necatrix” for “Eimeria tenella”, “were evaluated (according to embodiment 2).” for “were evaluated.”

[4] = broilers, 60 ppm in feed, 250,000 E. tenella oocysts, 7 days after inoculation
[5] = broilers, 60 ppm in feed, 250,000 E. tenella oocysts
[6] = broilers, 60 ppm in feed, 400,000 E. acervulina oocysts, 7 days after inoculation
[7] = broilers, 60 ppm in feed, 400,000 E. acervulina oocysts

SMILES: NC(=O)c1ncn(Cc2ccc(Cl)cc2)c1C(N)=O [IST15037, 1-(4-chlorobenzyl)-1H-imidazole-4,5-dicarboxamide]
- anticoccidial activity in view of survival rate, bloody stool score and relative weight gain [1]: highest anticoccidial activities
- responders at 60 ppm, 60 µg/mL [1, 4]: 100%
- response vs control in vivo at 60 ppm, 60 µg/mL [1, 5]: 99.2%
- Score (bloody stool score) [1, 5]: 0
- anticoccidial activity in view of survival rate, relative weight gain and feed conversion ratio [2]: highest anticoccidial activities
- responders at 60 ppm, 60 µg/mL [2, 6]: 100%
- response vs control in vivo at 60 ppm, 60 µg/mL [2, 7]: 98.5%
- Feed conversion ratio [2, 7]: 2.148
- anticoccidial activity in view of survival rate, bloody stool score and relative weight gain [3]: highest anticoccidial activities
- responders at 60 ppm, 60 µg/mL [3]: 100%
- response vs control in vivo at 60 ppm, 60 µg/mL [3]: 98.9%
- Score (bloody stool score) [3]: 0

SMILES: NC(=O)c1ncn(Cc2cc([N+](=O)[O-])cc([N+](=O)[O-])c2)c1C(N)=O [IST15056, 1-(3,5-dinitrobenzyl)-1H-imidazole-4,5-dicarboxamide]
- responders at 60 ppm, 60 µg/mL [1]: 100%
- response vs control in vivo at 60 ppm, 60 µg/mL [1, 5]: 81.3%
- Score (bloody stool score) [1, 5]: 3 (50 to 75% of bloody stool)
- responders at 60 ppm, 60 µg/mL [2]: 100%
- response vs control in vivo at 60 ppm, 60 µg/mL [2, 7]: 72.5%
- Feed conversion ratio [2, 7]: 2.405

SMILES: NC(=O)c1ncn(Cc2ccccc2F)c1C(N)=O [IST15043, 1-(2-fluorobenzyl)-1H-imidazole-4,5-dicarboxamide]
- anticoccidial activity in view of survival rate, bloody stool score and relative weight gain [1]: highest anticoccidial activities
- responders at 60 ppm, 60 µg/mL [1, 4]: 100%
- response vs control in vivo at 60 ppm, 60 µg/mL [1, 5]: 98.7%
- Score (bloody stool score) [1, 5]: 0
- anticoccidial activity in view of survival rate, relative weight gain and feed conversion ratio [2]: highest anticoccidial activities
- responders at 60 ppm, 60 µg/mL [2, 6]: 100%
- response vs control in vivo at 60 ppm, 60 µg/mL [2, 7]: 99.4%
- Feed conversion ratio [2, 7]: 2.139
- anticoccidial activity in view of survival rate, bloody stool score and relative weight gain [3]: highest anticoccidial activities
- responders at 60 ppm, 60 µg/mL [3]: 100%
- response vs control in vivo at 60 ppm, 60 µg/mL [3]: 102%
- Score (bloody stool score) [3]: 0

SMILES: CN1CCN(C(=O)c2nc[nH]c2C(=O)N2CCN(C)CC2)CC1 [IST15008, (1H-imidazole-4,5-diyl) bis((4-methylpiperazin-1-yl)methanone)]
- responders at 60 ppm, 60 µg/mL [1, 4]: 100%
- response vs control in vivo at 60 ppm, 60 µg/mL [1, 5]: 89.7%
- Score (bloody stool score) [1, 5]: 2 (25 to 50% of bloody stool)
- responders at 60 ppm, 60 µg/mL [3]: 100%
- response vs control in vivo at 60 ppm, 60 µg/mL [3]: 81.2%
- Score (bloody stool score) [3]: 3 (50 to 75% of bloody stool)

SMILES: NC(=O)c1ncn(Cc2ccc(Oc3ccc(Cl)cc3)cc2)c1C(N)=O [IST15167, 1-(4-(4-chlorophenoxy)benzyl)-1H-imidazole-4,5-dicarboxamide]
- responders at 60 ppm, 60 µg/mL [1, 4]: 100%
- response vs control in vivo at 60 ppm, 60 µg/mL [1, 5]: 82.7%
- Score (bloody stool score) [1, 5]: 3 (50 to 75% of bloody stool)
- responders at 60 ppm, 60 µg/mL [3]: 100%
- response vs control in vivo at 60 ppm, 60 µg/mL [3]: 75.8%
- Score (bloody stool score) [3]: 3 (50 to 75% of bloody stool)

SMILES: Cc1nc(=O)c2[nH]cnc2c(=O)[nH]1 [IST15016, 6-methylimidazo[4,5-e][1,3]diazepine-4,8(1H,5H)-dione]
- responders at 60 ppm, 60 µg/mL [1, 4]: 100%
- response vs control in vivo at 60 ppm, 60 µg/mL [1, 5]: 74.8%
- Score (bloody stool score) [1, 5]: 2 (25 to 50% of bloody stool)
- responders at 60 ppm, 60 µg/mL [2, 6]: 100%
- response vs control in vivo at 60 ppm, 60 µg/mL [2, 7]: 75.6%
- Feed conversion ratio [2, 7]: 2.524

SMILES: Cc1ccc(Cn2cnc(C(N)=O)c2C(N)=O)cc1 [IST15046, 1-(4-methylbenzyl)-1H-imidazole-4,5-dicarboxamide]
- responders at 60 ppm, 60 µg/mL [1, 4]: 100%
- response vs control in vivo at 60 ppm, 60 µg/mL [1, 5]: 78.4%
- Score (bloody stool score) [1, 5]: 3 (50 to 75% of bloody stool)

SMILES: CCC(=O)NC(=O)c1ncn(Cc2ccc(Cl)cc2)c1C(=O)NC(=O)CC [IST15152, 1-(4-chlorobenzyl)-N^4,N^5-dipropionyl-1H-imidazole-4,5-dicarboxamide]
- responders at 60 ppm, 60 µg/mL [1, 4]: 100%
- response vs control in vivo at 60 ppm, 60 µg/mL [1, 5]: 85.6%
- Score (bloody stool score) [1, 5]: 3 (50 to 75% of bloody stool)
